Laboratory results: ChEMBL document CHEMBL3351879, “Isolation, structure elucidation, relative LC-MS response, and in vitro toxicity of azaspiracids from the dinoflagellate Azadinium spinosum” (J Nat Prod, 2014)

Columns and labels:
Type in all cases: functional, cell-based
[1] = Cytotoxicity against human Jurkat E6-1 cells assessed as cell viability after 72 hrs by MTS assay
[2] = Cytotoxicity against human Jurkat E6-1 cells assessed as cell viability after 24 hrs by MTS assay
[3] = Cytotoxicity against human Jurkat E6-1 cells assessed as cell viability after 48 hrs by MTS assay

C=C(C[C@@]12C[C@@H](C)C[C@@H](O1)[C@H]1O[C@]3(C[C@H]1O2)NC[C@H](C)C[C@@H]3C)[C@H]1O[C@@](O)([C@H](O)[C@@H]2CC[C@@H](C/C=C/CC/C=C/CCC(=O)O)O2)[C@H](C)C[C@@H]1C
EC50 [1]: 6.4 nM
EC50 [2]: 3.3 nM
EC50 [3]: 5.9 nM

C=C(C[C@@]12C[C@@H](C)C[C@@H](O1)[C@H]1O[C@]3(C[C@H]1O2)NC[C@H](C)C[C@@H]3C)[C@H]1O[C@@](O)([C@H](O)[C@@H]2C[C@H]3O[C@@]4(CC[C@]5(CC=C[C@@H](CCC(=O)O)O5)O4)[C@H](C)C[C@H]3O2)[C@H](C)C[C@@H]1C
EC50 [1]: 0.2 nM
EC50 [2]: 0.23 nM
EC50 [3]: 0.18 nM

C=C(C[C@]12C[C@@H](C)C[C@H](O1)[C@H]1O[C@]3(C[C@H]1O2)NC[C@H](C)C[C@@H]3C)[C@H]1O[C@@](O)([C@H](O)[C@@H]2C[C@H]3O[C@@]4(CC[C@]5(CC=C[C@@H](/C=C/CCC(=O)O)O5)O4)[C@H](C)C[C@H]3O2)[C@H](C)C[C@@H]1C
EC50 [1]: 1.3 nM
EC50 [2]: 0.96 nM
EC50 [3]: 1.1 nM
